According to patent publication US20260256792A1, “TREATMENT OF CHRONIC SPONTANEOUS URTICARIA BY ADMINISTERING (R)-2-[3-[4-AMINO-3-(2-FLUORO-4-PHENOXY-PHENYL)PYRAZOLO[3,4-D]PYRIMIDIN-1-YL]PIPERIDINE-1-CARBONYL]-4-METHYL-4-[4-(OXETAN-3-YL)PIPERAZIN-1-YL]PENT-2-ENENITRILE” (priority 2023, published 2026):

Test system: moderate-to-severe chronic spontaneous urticaria (CSU)
Test: Phase 2 CSU study: urticaria activity score over 7 days (UAS7)
Format: in vivo, human
Conditions: ITT, 400 mg QPM
From the text: The study comprises a 12 week, randomized, double-blind, placebo-controlled, multi-center, dose-ranging efficacy and safety phase, followed by a 40 week open label extension (OLE) phase (see FIG. 1). The study consists of three phases and an optional OLE phase. […] Clinically, CSU is characterized by the spontaneous and recurrent appearance of pruritic hives. The proposed primary endpoints were the UAS7 at Week 12 in EU and EU reference countries and the ISS7 in the US. Regardless of where a participant was from, all assessments were the same. The UAS7 score is a composite score containing both the HSS7 and the ISS7. This allowed a global assessment of the two key components of urticaria: hives and itch. […] The UAS is a validated PRO measure. […] The daily UAS scores range from 0 to 6 point/day. […] Patients were to complete the UAS using the e-diary. […] The following secondary endpoints were to be analyzed using the same approach as for the primary endpoint: • Change from baseline in UAS7 at Week 4 • Change from baseline in UAS7 at Week 12 (for US and US reference countries) • Change from baseline in ISS7 at Week 12 (except US and US reference countries) • Change from baseline in HSS7 at Week 12 The following responder secondary endpoints were to be analyzed using the Cochran-Mantel-Haenszel test adjusted by region: • Proportion of participants with UAS7<6 at Week 12 • Proportion of participants with UAS7=0 at Week 12 Participants who received selected prohibited medications and/or rescue medications were to be considered as non-responders for time points after the medication usage. For other participants, all available data including those collected during the off-treatment period were to be used to determine the responder/non-responder status. Missing data were to be considered as non-responders.

With CC(C)(C=C(C#N)C(=O)N1CCC[C@@H](n2nc(-c3ccc(Oc4ccccc4)cc3F)c3c(N)ncnc32)C1)N1CCN(C2COC2)CC1 [rilzabrutinib, (R)-2-[3-[4-amino-3-(2-fluoro-4-phenoxy-phenyl)pyrazolo[3,4-d]pyrimidin-1-yl]piperidine-1-carbonyl]-4-methyl-4-[4-(oxetan-3-yl)piperazin-1-yl]pent-2-enenitrile] the “Non-responder n (%), UAS7 = 0” value (Week 6) was 37 (97.4) n (%), the “Non-responder n (%), UAS7 ≤6” value (Week 6) was 35 (92.1) n (%) and the “OR for rilzabrutinib vs. placebo, UAS7 = 0” value (Week 6) was 1.000. The “OR for rilzabrutinib vs. placebo, UAS7 ≤6” value (Week 6) was 0.540, the “RRD (%) for rilzabrutinib vs. placebo, UAS7 = 0” value (from here on “RRD (%) … UAS7 = 0”) (Week 6) was 0.0 % and the “RRD (%) for rilzabrutinib vs. placebo, UAS7 ≤6” value (“RRD (%) … UAS7 ≤6” for short) (Week 6) was −6.3%. The “Responder n (%), UAS7 = 0” value (Week 6) was 1 (2.6) n (%), the “Responder n (%), UAS7 ≤6” value (Week 6) was 3 (7.9) n (%) and the “Imputed non-responder n (%), UAS7 = 0” value (Week 7) was 6 (15.8) n (%). The “Imputed non-responder n (%), UAS7 ≤6” value (Week 7) was 6 (15.8) n (%), the “Non-responder n (%), UAS7 = 0” value (Week 7) was 37 (97.4) n (%) and the “Non-responder n (%), UAS7 ≤6” value (Week 7) was 37 (97.4) n (%). The “OR for rilzabrutinib vs. placebo, UAS7 = 0” value (Week 7) was 1.167, the “OR for rilzabrutinib vs. placebo, UAS7 ≤6” value (Week 7) was 0.278 and the “RRD (%) … UAS7 = 0” value (Week 7) was 0.4 %. The “RRD (%) … UAS7 ≤6” value (Week 7) was −7.3%, the “Responder n (%), UAS7 = 0” value (Week 7) was 1 (2.6) n (%) and the “Responder n (%), UAS7 ≤6” value (Week 7) was 1 (2.6) n (%). The “Imputed non-responder n (%), UAS7 = 0” value (Week 8) was 7 (18.4) n (%), the “Imputed non-responder n (%), UAS7 ≤6” value (Week 8) was 7 (18.4) n (%) and the “Non-responder n (%), UAS7 = 0” value (Week 8) was 37 (97.4) n (%). For the same compound, the “Non-responder n (%), UAS7 ≤6” value (Week 8) was 35 (92.1) n (%), the “OR for rilzabrutinib vs. placebo, UAS7 = 0” value (Week 8) was 0.527 and the “OR for rilzabrutinib vs. placebo, UAS7 ≤6” value (Week 8) was 0.502. For the same compound, the “RRD (%) … UAS7 = 0” value (Week 8) was −2.2 %, the “RRD (%) … UAS7 ≤6” value (Week 8) was −7.0% and the “Responder n (%), UAS7 = 0” value (Week 8) was 1 (2.6) n (%). The “Responder n (%), UAS7 ≤6” value (Week 8) was 3 (7.9) n (%), the “Imputed non-responder n (%), UAS7 = 0” value (Week 9) was 6 (15.8) n (%) and the “Imputed non-responder n (%), UAS7 ≤6” value (Week 9) was 6 (15.8) n (%). For the same compound, the “Non-responder n (%), UAS7 = 0” value (Week 9) was 37 (97.4) n (%), the “Non-responder n (%), UAS7 ≤6” value (Week 9) was 35 (92.1) n (%) and the “OR for rilzabrutinib vs. placebo, UAS7 = 0” value (Week 9) was 0.330. For the same compound, the “OR for rilzabrutinib vs. placebo, UAS7 ≤6” value (Week 9) was 0.773, the “RRD (%) … UAS7 = 0” value (Week 9) was −4.9 % and the “RRD (%) … UAS7 ≤6” value (Week 9) was −2.2 %. For the same compound, the “Responder n (%), UAS7 = 0” value (Week 9) was 1 (2.6) n (%), the “Responder n (%), UAS7 ≤6” value (Week 9) was 3 (7.9) n (%) and the “Imputed non-responder n (%), UAS7 = 0” value (Week 10) was 6 (15.8) n (%). For the same compound, the “Imputed non-responder n (%), UAS7 ≤6” value (Week 10) was 6 (15.8) n (%), the “Non-responder n (%), UAS7 = 0” value (Week 10) was 37 (97.4) n (%) and the “Non-responder n (%), UAS7 ≤6” value (Week 10) was 36 (94.7) n (%). The “OR for rilzabrutinib vs. placebo, UAS7 = 0” value (Week 10) was 0.235, the “OR for rilzabrutinib vs. placebo, UAS7 ≤6” value (Week 10) was 0.279 and the “RRD (%) … UAS7 = 0” value (Week 10) was −7.9 %. The “RRD (%) … UAS7 ≤6” value (Week 10) was −11.9%, the “Responder n (%), UAS7 = 0” value (Week 10) was 1 (2.6) n (%) and the “Responder n (%), UAS7 ≤6” value (Week 10) was 2 (5.3) n (%). The “Imputed non-responder n (%), UAS7 = 0” value (Week 11) was 7 (18.4) n (%), the “Imputed non-responder n (%), UAS7 ≤6” value (Week 11) was 7 (18.4) n (%) and the “Non-responder n (%), UAS7 = 0” value (Week 11) was 36 (94.7) n (%). For the same compound, the “Non-responder n (%), UAS7 ≤6” value (Week 11) was 35 (92.1) n (%), the “OR for rilzabrutinib vs. placebo, UAS7 = 0” value (Week 11) was 1.065 and the “OR for rilzabrutinib vs. placebo, UAS7 ≤6” value (Week 11) was 0.418. For the same compound, the “RRD (%) … UAS7 = 0” value (Week 11) was 0.3 %, the “RRD (%) … UAS7 ≤6” value (Week 11) was −9.4% and the “Responder n (%), UAS7 = 0” value (Week 11) was 2 (5.3) n (%). For the same compound, the “Responder n (%), UAS7 ≤6” value (Week 11) was 3 (7.9) n (%), the “Imputed non-responder n (%), UAS7 = 0” value (Week 12) was 10 (26.3) n (%) and the “Imputed non-responder n (%), UAS7 ≤6” value (Week 12) was 10 (26.3) n (%). For the same compound, the “Non-responder n (%), UAS7 = 0” value (Week 12) was 37 (97.4) n (%), the “Non-responder n (%), UAS7 ≤6” value (Week 12) was 36 (94.7) n (%) and the “OR for rilzabrutinib vs. placebo, UAS7 = 0” value (Week 12) was 0.194. For the same compound, the “OR for rilzabrutinib vs. placebo, UAS7 ≤6” value (Week 12) was 0.378, the “RRD (%) … UAS7 = 0” value (Week 12) was −10.0 % and the “RRD (%) … UAS7 ≤6” value (Week 12) was −7.6%. The “Responder n (%), UAS7 = 0” value (Week 12) was 1 (2.6) n (%).
